Each structure is given as a SMILES string.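 Following 48 hours of exposure in 96-well plates, responses at five concentrations were used to interpolate endpoints linearly. GI50 is the concentration that inhibits growth by half. TGI is the concentration that stops growth completely.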 Where only a bound is given, the exact number is not on record here.

Test systems include SK-MEL-2 melanoma; TK-10 renal; 786-0 renal; SK-MEL-28 melanoma; SK-OV-3 ovarian; K-562 leukemia; UACC-257 melanoma; BT-549 breast.
What all share (test): NCI anticancer screen, dose series, 48 h

Consider `C=C(CNC(=O)Nc1ccc(-c2ccccc2)cc1)c1ccc(C(=O)Nc2ccccc2N)cc1`, for which the GI50 was > 100 µM in the test with SK-MEL-2 melanoma; > 100 µM in the test with TK-10 renal; > 100 µM with 786-0 renal; 48.3 µM in the test on SK-MEL-28 melanoma; 25.9 µM with SK-OV-3 ovarian; 40.6 µM with K-562 leukemia. Moreover, the GI50 in the test with UACC-257 melanoma is > 100 µM. Moreover, the TGI is > 100 µM with SK-MEL-2 melanoma; > 100 µM in the test on TK-10 renal; > 100 µM with 786-0 renal; > 100 µM in the test with SK-MEL-28 melanoma; 74.8 µM in the test on SK-OV-3 ovarian; > 100 µM with K-562 leukemia. Also, the TGI in the test with UACC-257 melanoma was > 100 µM.

As for `CC(=O)N1CCN(C2=Nc3ccccc3CO2)C1=S`, the GI50 is 40.1 µM with BT-549 breast; > 100 µM with TK-10 renal; > 100 µM with 786-0 renal; > 100 µM in the test with SK-MEL-28 melanoma; > 100 µM in the test on SK-OV-3 ovarian; 46.5 µM in the test with K-562 leukemia. Moreover, the GI50 with UACC-257 melanoma was > 100 µM. Moreover, the TGI in the test with BT-549 breast, in the test with TK-10 renal, with 786-0 renal, with SK-MEL-28 melanoma, in the test on SK-OV-3 ovarian and in the test with K-562 leukemia was > 100 µM throughout. Besides, the TGI in the test on UACC-257 melanoma is > 100 µM.

Take `O=C(c1ccc2ccccc2c1O)N1CCCCC1`: the TGI in the test on SK-MEL-2 melanoma was > 100 µM; in the test with TK-10 renal, > 100 µM; in the test with 786-0 renal, > 100 µM; in the test on SK-MEL-28 melanoma, > 100 µM; in the test with SK-OV-3 ovarian it was > 100 µM; in the test with K-562 leukemia, 75.3 µM. Also, the TGI in the test with UACC-257 melanoma is > 100 µM.

On to `NS(=O)(=O)c1ccc(NC(=O)c2ccc(NC3=C(Cl)C(=O)N(Cc4ccccc4)C3=O)cc2)cc1`, for which the GI50 in the test with TK-10 renal was > 100 µM; in the test on 786-0 renal, 3.38 µM; with SK-MEL-28 melanoma, 4.16 µM; with SK-OV-3 ovarian it was 41 µM; in the test with K-562 leukemia it was 3.26 µM; with UACC-257 melanoma, 18.2 µM. The TGI with TK-10 renal was > 100 µM; with 786-0 renal, 12.5 µM; in the test with SK-MEL-28 melanoma, > 100 µM; with SK-OV-3 ovarian, > 100 µM; in the test on K-562 leukemia, > 100 µM; in the test with UACC-257 melanoma, 56.7 µM.

On to `O=[As](O)(O)c1ccc(NCc2ccccc2)cc1`, for which the TGI with BT-549 breast, with SK-MEL-2 melanoma, in the test with TK-10 renal, with 786-0 renal, with SK-MEL-28 melanoma and in the test on K-562 leukemia was > 100 µM throughout. In addition, the TGI with UACC-257 melanoma is > 100 µM.

On to `N#Cc1cc(C#N)c(Cl)nc1N`, for which the TGI in the test with SK-MEL-2 melanoma, in the test on TK-10 renal, in the test on 786-0 renal, with SK-MEL-28 melanoma, with SK-OV-3 ovarian and with K-562 leukemia was > 10 µM in each case.

For `O=C(Nc1ccc(Cl)cc1Cl)c1ccc(NC2=C(Cl)C(=O)N(Cc3ccccc3)C2=O)cc1`, the GI50 is 15.6 µM in the test with BT-549 breast; 54.1 µM in the test on SK-MEL-2 melanoma; 25.5 µM in the test with TK-10 renal; 21.6 µM in the test with 786-0 renal; 30.3 µM in the test on SK-OV-3 ovarian; 6.24 µM in the test on K-562 leukemia. In the test on UACC-257 melanoma, the GI50 is 26.2 µM. Besides, the TGI in the test with BT-549 breast was 30 µM; in the test with SK-MEL-2 melanoma, > 100 µM; with TK-10 renal, 81.9 µM; in the test with 786-0 renal, > 100 µM; in the test with SK-OV-3 ovarian it was 78.8 µM; in the test with K-562 leukemia it was 18.4 µM. Also, in the test on UACC-257 melanoma, the TGI came to 71.8 µM.

On to `COc1cc(/C(Cl)=C/C=C/C(=O)c2c(C)[n+]([O-])c3ccc(Cl)cc3[n+]2[O-])cc(OC)c1OC`, for which the GI50 in the test on BT-549 breast was 6.47 µM; in the test on 786-0 renal, 4.62 µM; in the test on SK-MEL-28 melanoma, 6.85 µM; in the test on SK-OV-3 ovarian, 7.4 µM; in the test with K-562 leukemia it was 1.43 µM; with UACC-257 melanoma, 16.6 µM. In addition, the TGI was 39.4 µM in the test with BT-549 breast; > 50 µM in the test with 786-0 renal; 49.4 µM in the test on SK-MEL-28 melanoma; 31.5 µM in the test on SK-OV-3 ovarian; 6.24 µM in the test on K-562 leukemia; > 50 µM in the test with UACC-257 melanoma.

Turning to `CN1C(=O)c2c(ccc3c2OCO3)C2C(O)Cc3cc4c(cc3C21)OCO4` (centres undefined), the TGI with BT-549 breast was > 100 µM; with SK-MEL-2 melanoma it was 8.44 µM; in the test on TK-10 renal it was > 100 µM; in the test with 786-0 renal, 37.3 µM; with SK-MEL-28 melanoma it was > 100 µM; with SK-OV-3 ovarian, 8.37 µM. In the test on K-562 leukemia, this molecule yielded a TGI of 60.2 µM.

As for `COc1cc2c(/C=N\N=C(N)N)c(Cl)[nH]c2cc1C`, the GI50 was 13.2 µM in the test with BT-549 breast; 34.5 µM in the test with SK-MEL-2 melanoma; 15.7 µM in the test on TK-10 renal; 14.4 µM in the test on 786-0 renal; 9.03 µM with SK-OV-3 ovarian; 4.36 µM in the test with K-562 leukemia. For the same molecule, the GI50 with UACC-257 melanoma was 16.5 µM. The TGI in the test on BT-549 breast was 27.8 µM; with SK-MEL-2 melanoma it was > 100 µM; in the test with TK-10 renal, 29.5 µM; with 786-0 renal, 28.3 µM; in the test on SK-OV-3 ovarian it was 24.1 µM; with K-562 leukemia it was 19.7 µM. The molecule further had a TGI in the test on UACC-257 melanoma of 32.5 µM.

`O=P([O-])(O)OP(=O)([O-])O.[NH-][C@H]1CCCC[C@@H]1[NH-].[OH-].[OH-].[Pt+4]`: the GI50 in the test on BT-549 breast was 24.3 µM; in the test on 786-0 renal it was 29.5 µM; in the test with SK-MEL-28 melanoma, 31.5 µM; in the test on SK-OV-3 ovarian it was 19.9 µM; in the test with K-562 leukemia it was 92.9 µM; in the test on UACC-257 melanoma, 37 µM. Further, the TGI in the test with BT-549 breast is 47.9 µM; in the test on 786-0 renal, 76.2 µM; in the test with SK-MEL-28 melanoma it was > 100 µM; in the test with SK-OV-3 ovarian, 38.6 µM; in the test with K-562 leukemia, > 100 µM; with UACC-257 melanoma, > 100 µM.

For the molecule `Cc1ccc(NCCCN2CCN(CCCNc3ccc(C)c4sc5ccccc5c(=O)c34)CC2)c2c(=O)c3ccccc3sc12`, the TGI with SK-MEL-2 melanoma is 93.8 µM; in the test with 786-0 renal, > 100 µM; in the test on SK-MEL-28 melanoma, > 100 µM; in the test on SK-OV-3 ovarian, > 100 µM; in the test on K-562 leukemia, > 100 µM; in the test with UACC-257 melanoma, > 100 µM.

Take `O=S(=O)(Nc1ncccn1)c1ccc(N=Nc2ccc(O)c3ncccc23)cc1`: the GI50 with BT-549 breast is 10.7 µM; in the test with SK-MEL-2 melanoma it was 18.3 µM; in the test with 786-0 renal it was 7.17 µM; in the test with SK-MEL-28 melanoma, 12.5 µM; in the test on SK-OV-3 ovarian, 19.2 µM; in the test on K-562 leukemia it was 3.23 µM. Besides, the GI50 with UACC-257 melanoma was 14.8 µM. Besides, the TGI with BT-549 breast is 27 µM; in the test with SK-MEL-2 melanoma, 43.6 µM; with 786-0 renal it was 58.1 µM; in the test on SK-MEL-28 melanoma, 46.3 µM; in the test on SK-OV-3 ovarian it was > 100 µM; in the test on K-562 leukemia, 61.2 µM. Moreover, in the test on UACC-257 melanoma, the TGI stood at 45.2 µM.

The record behind these values is PubChem BioAssay (NCI).
